Earlier results, collected in patent publication US6777573B1, “Method for the synthesis of ceralure B1” (The United States of America as represented by the …, priority 2002, dated 2004).
Entries after “also recorded” stand apart in the source; their conditions may differ.

Tested on: Ceratitis capitata (Mediterranean fruit fly, medfly)

SMILES	relative attractiveness among ceralure isomers (isomers separated by HPLC, study of 4 trans isomers (Warthen et al. 1994))	higher attractancy than the racemate (optically active form versus racemic ceralure B1 (Raw et al.))
CCOC(=O)C1CC(I)CCC1C (mixture of isomers) [ceralure B1, ethyl cis,trans-5-iodo-2-methylcyclohexane-1-carboxylate]	most active isomer; also recorded: superior to the other three isomers	–
CCOC(=O)C1CC(I)CCC1C (single isomer, unassigned; (-)) [(−)ceralure B1, reference compound]	–	about 30%
